Earlier results on five compounds are cited in EP4563141A1, “SELF-EMULSIFYING FORMULATION FOR TOPICAL USE” (Guidotti, Elena, priority 2023, dated 2025).

One data set concerns the target CB2 (Homo sapiens, UniProt P34972).
In data set [1] the test system is S. aureus biofilm formation. To be noted: 0.01% (v/v); trans-nerolidol at a similar concentration.
The conditions of data set [2]: compared with animals in the control group.
For data set [3] the following is noted: human; 4% nerolidol (unspecified isomer); single occlusive application for 48 h.
The conditions of data set [4]: several drugs, particularly 5-fluorouracil, with the use of nerolidol.
The conditions of data set [5]: human; 4% (unspecified isomer); maximization tests or repeated insult tests.
Experiment in data set [6]: not given
The source holds these as a separate data set.

Experiment in data set [7]: not given
The source holds these as a separate data set.

Another data set addresses CB1 (Homo sapiens, UniProt P21554).

Like-named read-outs stand apart in the source and are kept apart here.

CB2, sequence (P34972 whole entry, species assumed): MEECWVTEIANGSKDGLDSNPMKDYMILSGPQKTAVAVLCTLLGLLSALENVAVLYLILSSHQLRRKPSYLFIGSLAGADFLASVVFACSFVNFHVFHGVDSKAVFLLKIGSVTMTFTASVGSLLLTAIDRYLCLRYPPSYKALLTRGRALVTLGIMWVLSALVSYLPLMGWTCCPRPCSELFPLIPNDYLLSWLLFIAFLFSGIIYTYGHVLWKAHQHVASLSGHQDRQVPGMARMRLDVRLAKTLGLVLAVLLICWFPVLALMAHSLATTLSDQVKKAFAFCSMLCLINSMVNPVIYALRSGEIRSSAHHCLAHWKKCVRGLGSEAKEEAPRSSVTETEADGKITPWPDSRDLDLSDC
CB1, sequence (P21554 whole entry, species assumed): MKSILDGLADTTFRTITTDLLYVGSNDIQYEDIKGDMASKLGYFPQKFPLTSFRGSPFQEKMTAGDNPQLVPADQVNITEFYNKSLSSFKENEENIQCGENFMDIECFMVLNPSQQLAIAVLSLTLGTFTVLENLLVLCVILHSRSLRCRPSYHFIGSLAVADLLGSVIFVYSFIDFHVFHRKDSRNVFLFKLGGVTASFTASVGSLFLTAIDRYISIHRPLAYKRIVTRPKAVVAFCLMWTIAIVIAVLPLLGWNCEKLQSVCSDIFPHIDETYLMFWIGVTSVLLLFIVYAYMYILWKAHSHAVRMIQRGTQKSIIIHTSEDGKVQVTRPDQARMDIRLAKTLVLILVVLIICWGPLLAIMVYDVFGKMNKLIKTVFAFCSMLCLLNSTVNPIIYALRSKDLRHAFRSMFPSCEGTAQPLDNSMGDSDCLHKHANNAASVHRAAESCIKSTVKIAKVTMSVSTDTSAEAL

In the case of `C=CCc1ccc(O)c(-c2cc(CC=C)ccc2O)c1` [magnolol], the LogP entry is reported as “over 4”. Besides, the “mode of activity at CB2” value at CB2 is “partial CBD receptor agonist”.
On to `C=CC(C)(O)CC/C=C(/C)CCC=C(C)C` (stereo not drawn) [Cis-nerolidol], for which, in data set [1], the “inhibit S. aureus biofilm formation” value is on record as “more than 80%”.
As to `C=CC(C)(O)CCC=C(C)CCC=C(C)C` (centres unmarked) [nerolidol, 3,7,11-trimethyl-1,6,10-Dodecatrien-3-ol], the “reduction in ulcerative lesion index (ULI)” value is given as 41.22 in [2] (50 mg/k), 51.31 in data set [2] (250 mg/k) and 56.57 in [2] (500 mg/k). Moreover, the skin irritation entry in data set [3] is listed as “did not cause skin irritation”; in data set [7] (5% in diethyl phthalate, eliminated after 48 h), “very mild edema in one animal”; in data set [7] (rabbits, undiluted (unspecified isomer), intact and abraded skin, after 48 h), “well-defined erythema or mild edema”. Also, the “increase in diffusion rate for transdermal penetration” value in [4] is “more than 20 fold”. For the same compound, the skin sensitization entry in data set [5] is given as “did not cause positive reactions”; in data set [6] (guinea pigs, two adjuvant tests, concentrations of 3% and 10%), “weak reactions”. The cross-sensitization result in data set [6] (guinea pigs induced with farnesyl acetate) is “no cross-sensitization was observed”.
In the case of `C=CC(C)(O)CC/C=C(\C)CCC=C(C)C` (stereo not drawn) [trans-nerolidol], the “inhibit S. aureus biofilm formation” value in data set [1] is reported as 45%.
Consider `C=CCc1ccc(O)c(-c2ccc(O)c(CC=C)c2)c1` [honokiol], for which the LogP entry is listed as “over 4”. Further, the “mode of activity at CB2” value at CB2 is on record as “antagonistic properties”. Besides, the “mode of activity at CB1” value at CB1 is “full agonistic activity”.
